Measured values published in US20240083861A1, “HSD17B13 INHIBITORS AND USES THEREOF” (FL2022-001, Inc., priority 2020, published 2024).

Target: T1, Recombinant human HSD17B13 enzyme (Homo sapiens, UniProt Q7Z5P4)
T1 sequence (Q7Z5P4 20-300): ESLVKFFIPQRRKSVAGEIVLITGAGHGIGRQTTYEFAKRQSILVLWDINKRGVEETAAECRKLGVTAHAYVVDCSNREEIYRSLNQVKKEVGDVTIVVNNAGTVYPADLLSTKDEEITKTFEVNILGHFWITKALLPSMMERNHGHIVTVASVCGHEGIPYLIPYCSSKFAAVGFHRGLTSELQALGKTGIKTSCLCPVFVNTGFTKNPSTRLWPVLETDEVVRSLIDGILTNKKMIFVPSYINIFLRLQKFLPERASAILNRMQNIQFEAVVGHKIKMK
Experiment: HSD17b13 NAD(P)H-Glo biochemical assay
Settings: 50 uM estradiol, 1 mM NAD+, NAD(P)H-Glo luminescence; read-out: HSD17β13 IC50
How it was run: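 Luminescent NAD(P)H-Glo read-out, taken after 1 hour at RT, measured cofactor reduction. Substrate and cofactor were estradiol at 50 uM and NAD+ at 1 mM final, reacted with the recombinant human enzyme for 3 hours at 37° C in 20 mM Tris pH7.4, 0.002% Tween-20, 0.02% BSA. Compound was pre-incubated with enzyme for 20 minutes at RT.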

SMILES	IC50 [µM]
Cn1nc(-c2cc(C(F)(F)F)c(F)c(O)c2F)c2cnc(N3CCOC(C(=O)O)C3)nc21 (centres unmarked) [Compound 18.43, 4-(3-(2,4-Difluoro-3-hydroxy-5-(trifluoromethyl)phenyl)-1-methyl-1H-pyrazolo[3,4-d]pyrimidin-6-yl)morpholine-2-carboxylic Acid]	1 to 30
CS(=O)(=O)N1CCN(c2ccc3nc(-c4cc(O)cc(C(F)(F)F)c4)oc3c2)CC1 [Compound 4.01, 3-(6-(4-(Methylsulfonyl)piperazin-1-yl)benzo[d]oxazol-2-yl)-5-(trifluoromethyl)phenol]	0.1 to 1
O=C(NC12CC(C1)C2)c1ccc2oc(-c3cc(O)c(F)c(C(F)(F)F)c3)nc2c1 [Compound 1.10, N-(Bicyclo[1.1.1]pentan-1-yl)-2-(4-fluoro-3-hydroxy-5-(trifluoromethyl)phenyl)benzo[d]oxa-zole-5-carboxamide]	< 0.1
Cn1nc(-c2cc(C(F)(F)F)c(F)c(O)c2F)c2cnc(NC3CCC3)nc21 [Compound 9.16, 3-(6-(Cyclobutylamino)-1-methyl-1H-pyrazolo[3,4-d]pyrimidin-3-yl)-2,6-difluoro-5-(trifluoromethyl)phenol]	< 0.1
Cn1nc(-c2cc(C(F)(F)F)c(F)c(O)c2F)c2ccc(N3CCOCC34CC4)nc21 [Compound 9.03, 2,6-Difluoro-3-(1-methyl-6-(7-oxa-4-azaspiro[2.5]octan-4-yl)-1H-pyrazolo[3,4-b]pyridin-3-yl)-5-(trifluoromethyl)phenol]	< 0.1
Cn1nc(-c2cc(C(F)(F)F)c(F)c(O)c2F)c2cnc(N3CCNCC3)nc21 [Compound 18.75, 2,6-Difluoro-3-(1-methyl-6-(piperazin-1-y1)-1H-pyrazolo[3,4-d]pyrimidin-3-y1)-5-(trifluoromethyl)phenol]	0.1 to 1
C[C@H]1CN(C(=O)Nc2ccccc2)CCN1c1cc2c(cn1)c(-c1cc(C(F)(F)F)c(F)c(O)c1F)nn2C [Compound 21.02, (S)-4-(3-(2,4-Difluoro-3-hydroxy-5-(trifluoromethyl)phenyl)-1-methyl-1H-pyrazolo[4,3-c]pyridin-6-y1)-3-methyl-N-phenylpiperazine-1-carboxamide]	< 0.1
Cn1nc(-c2cc(C(F)(F)F)c(F)c(O)c2F)c2cnc(N3CCC4(CCC(=O)N4)CC3)nc21 [Compound 18.15, 8-(3-(2,4-Difluoro-3-hydroxy-5-(trifluoromethyl)phenyl)-1-methyl-1H-pyrazolo[3,4-d]pyrimidin-6-yl)-1,8-diazaspiro[4.5]decan-2-one]	< 0.1
Cn1nc(-c2cc(C(F)(F)F)c(F)c(O)c2F)c2cnc(N3CCC(O)(CO)CC3)nc21 [Compound 18.91, 1-(3-(2,4-Difluoro-3-hydroxy-5-(trifluoromethyl)phenyl)-1-methyl-1H-pyrazolo[3,4-d]pyrimidin-6-yl)-4-(hydroxymethyl)piperidin-4-ol]	< 0.1
Cn1nc(-c2cc(C(F)(F)F)c(F)c(O)c2F)c2cnc(N3CCO[C@@H](c4ccccc4)C3)nc21 [Compound 18.86, (S)-2,6-Difluoro-3-(1-methyl-6-(2-phenylmorpholino)-1H-pyrazolo[3,4-d]pyrimidin-3-y1)-5-(trifluoromethyl)phenol]	< 0.1
COCC1(Nc2cc3c(cn2)c(-c2cc(C(F)(F)F)c(F)c(O)c2F)nn3C)CCC1 [Compound 9.98, 2,6-Difluoro-3-(6-((1-(methoxymethyl)cyclobutyl)amino)-1-methyl-1H-pyrazolo[4,3-c]pyridin-3-yl)-5-(trifluoromethyl)phenol]	< 0.1
Cn1nccc1C1CN(c2ncc3c(-c4cc(C(F)(F)F)c(F)c(O)c4F)nn(C)c3n2)CCO1 (centres unmarked) [Compound 18.51, 2,6-Difluoro-3-(1-methyl-6-(2-(1-methyl-1H-pyrazol-5-yl)morpholino)-1H-pyrazolo[3,4-d]pyrimidin-3-y1)-5-(trifluoromethyl)phenol]	< 0.1
CNC(=O)N1CCN(c2ncc3c(-c4cc(C(F)(F)F)c(F)c(O)c4F)nn(C)c3n2)CC12CCC2 [Compound 20.01, 8-(3-(2,4-Difluoro-3-hydroxy-5-(trifluoromethyl)phenyl)-1-methyl-1H-pyrazolo[3,4-d]pyrimidin-6-yl)-N-methyl-5,8-diazaspiro[3.5]nonane-5-carboxamide]	< 0.1
COCCN(c1cc2c(cn1)c(-c1cc(C(F)(F)F)c(F)c(O)c1F)nn2C)C1CCOCC1 [Compound 9.50, 2,6-Difluoro-3-(6-((2-methoxyethyl)(tetrahydro-2H-pyran-4-yl)amino)-1-methyl-1H-pyrazolo[4,3-c]pyridin-3-yl)-5-(trifluoromethyl)phenol]	< 0.1
Cn1nc(-c2cc(C(F)(F)F)c(F)c(O)c2F)c2cnc(N3CCN(S(C)(=O)=O)C4(CCC4)C3)nc21 [Compound 18.63, 2,6-Difluoro-3-(1-methyl-6-(5-(methylsulfony1)-5,8-diazaspiro[3.5]nonan-8-yl)-1H-pyrazolo[3,4-d]pyrimidin-3-y1)-5-(trifluoromethyl)phenol]	< 0.1
Cn1nc(-c2cc(C(F)(F)F)c(F)c(O)c2F)c2cnc(N3CCO[C@H](c4ccccc4)C3)nc21 [Compound 18.87, (R)-2,6-Difluoro-3-(1-methyl-6-(2-phenylmorpholino)-1H-pyrazolo[3,4-d]pyrimidin-3-y1)-5-(trifluoromethyl)phenol]	< 0.1
Cn1nc(-c2cc(C(F)(F)F)c(F)c(O)c2F)c2cnc(N(C3CCC3)C3CCOCC3)cc21 [Compound 9.29, 3-(6-(Cyclobutyl(tetrahydro-2H-pyran-4-yl)amino)-1-methyl-1H-pyrazolo[4,3-c]pyridin-3-yl)-2,6-difluoro-5-(trifluoromethyl)phenol]	< 0.1
CC(C)C1COCCN1c1cc2c(cn1)c(-c1cc(C(F)(F)F)c(F)c(O)c1F)nn2C (centres unmarked) [Compound 9.52, 2,6-Difluoro-3-(6-(3-isopropylmorpholino)-1-methyl-1H-pyrazolo[4,3-c]pyridin-3-yl)-5-(trifluoromethyl)phenol]	< 0.1
CN1CC(NC(=O)c2ccc3oc(-c4cc(C(F)(F)F)c(F)c(O)c4F)nc3c2)C1 [Compound 1.18, 2-(2,4-Difluoro-3-hydroxy-5-(trifluoromethyl)phenyl)-N-(1-methylazetidin-3-yl)benzo[d]oxazole-5-carboxamide]	1 to 30
Cn1nc(-c2cc(C(F)(F)F)c(F)c(O)c2F)c2cnc(N3CCOC4(CCC4)C3)nc21 [Compound 18, 2,6-Difluoro-3-(1-methyl-6-(5-oxa-8-azaspiro[3.5]nonan-8-yl)-1H-pyrazolo[3,4-d]pyrimidin-3-yl)-5-(trifluoromethyl)phenol]	< 0.1
Cn1nc(-c2cc(C(F)(F)F)c(F)c(O)c2F)c2cnc(N3CCN(C4CC4)C(=O)C3)nc21 [Compound 18.21, 1-Cyclopropyl-4-(3-(2,4-difluoro-3-hydroxy-5-(trifluoromethyl)phenyl)-1-methyl-1H-pyrazolo[3,4-d]pyrimidin-6-y1)piperazin-2-one]	< 0.1
Cn1nc(-c2cc(C(F)(F)F)c(F)c(O)c2F)c2cc(F)c(N3CCN(S(C)(=O)=O)CC34CC4)nc21 [Compound 9.104, 2,6-Difluoro-3-(5-fluoro-1-methyl-6-(7-(methylsulfonyl)-4,7-diazaspiro[2.5]octan-4-yl)-1H-pyrazolo[3,4-b]pyridin-3-yl)-5-(trifluoromethyl)phenol]	< 0.1
Oc1cccc(-c2ccc3oc(-c4ccc(F)c(O)c4)nc3c2)c1 [Compound 3.03, 2-Fluoro-5-(5-(3-hydroxyphenyl)benzo[d]oxazol-2-yl)phenol]	1 to 30
